In patent US20250122225A1, “MASP-2 INHIBITORS AND METHODS OF USE” (Omeros Corporation, priority 2023, published 2025) one finds Ki data, which are given here for 24 molecules.

Where a name gives a salt, the structure may show the parent alone.

One test has as its target T1, MASP-2 (CCP1-CCP2-SP) (Homo sapiens, UniProt O00187).
T1 construct: 15 μL of Enzyme MASP-2 (CCP1-CCP2-SP) in Assay Buffer
Description: Enzymatic assay for MASP-2 inhibitory activity (fluorogenic substrate). The format is biochemical. Put shortly:
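MASP-2 (CCP1-CCP2-SP) cleaved a fluorogenic substrate based on the C2 cleavage site in 20 mM HEPES pH 7.4, 140 mM NaCl, 0.1% Tween 20 at room temperature. After 20 min the reaction was stopped with 0.1 M acetic acid and fluorescence read. % activity was normalized to DMSO-only and no-enzyme controls; IC50 taken as Ki.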

Another test addresses T2, human α-thrombin (Homo sapiens, UniProt P00734).
T2 construct: enzyme (human α-thrombin (BioPharm® Lab.)) in assay buffer; purchased BioPharm® Lab
Description: Enzymatic assay for thrombin (fluorogenic peptide substrate Boc-VPR-AMC). It is filed as biochemical. The procedure, abridged: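 Human α-thrombin was run with the fluorogenic substrate Boc-VPR-AMC in 20 mM Hepes pH 7.4, 140 mM NaCl, 0.1% Tween 20 at room temperature for 20 min, then stopped with 0.1 M acetic acid. % activity was normalized to DMSO and no-enzyme controls. Under linear conditions IC50 equalled Ki, except for tight-binding inhibitors.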

T1 sequence (O00187 445-686 limits assumed): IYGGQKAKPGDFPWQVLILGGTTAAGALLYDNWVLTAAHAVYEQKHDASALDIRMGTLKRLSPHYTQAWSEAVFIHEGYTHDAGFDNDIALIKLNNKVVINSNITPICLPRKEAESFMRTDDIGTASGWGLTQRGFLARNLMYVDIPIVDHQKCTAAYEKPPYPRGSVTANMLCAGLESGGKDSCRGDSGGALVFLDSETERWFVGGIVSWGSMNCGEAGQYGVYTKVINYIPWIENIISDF
T1 sequence (O00187 287-444 partner limits assumed): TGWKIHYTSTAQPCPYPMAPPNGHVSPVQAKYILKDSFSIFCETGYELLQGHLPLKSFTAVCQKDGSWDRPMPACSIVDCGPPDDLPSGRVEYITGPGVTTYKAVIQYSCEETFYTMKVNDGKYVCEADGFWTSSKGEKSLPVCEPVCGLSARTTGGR

Turning to `Cc1cc2[nH]c(CNC(=O)[C@@H]3CCc4cnc(NCc5cccc(C)c5F)c(=O)n43)cc2cn1` [Compound 61, (S)-3-((2-fluoro-3-methylbenzyl)amino)-N-((6-methyl-1H-pyrrolo[3,2-c]pyridin-2-yl)methyl)-4-oxo-4,6,7,8-tetrahydropyrrolo[1,2-a]pyrazine-6-carboxamide], the Ki at MASP-2 (CCP1-CCP2-SP) was less than 500 nM; at human α-thrombin, 2500 to 10000 nM.
Turning to `Cc1cccc(CNc2ncc3n(c2=O)[C@H](C(=O)NCc2ccc(N)nc2C)CC3)c1F` [Compound 62, (S)-N-((6-amino-2-methylpyridin-3-yl)methyl)-3-((2-fluoro-3-methylbenzyl)amino)-4-oxo-4,6,7,8-tetrahydropyrrolo[1,2-a]pyrazine-6-carboxamide], the inhibition constant Ki on MASP-2 (CCP1-CCP2-SP) and on human α-thrombin was less than 500 nM each time.
Regarding `Cc1ccc(F)cc1CNc1ncc2n(c1=O)[C@H](C(=O)NCc1cc3cnccc3[nH]1)CC2` [Compound 63, (S)-N-((1H-pyrrolo[3,2-c]pyridin-2-yl)methyl)-3-((5-fluoro-2-methylbenzyl)amino)-4-oxo-4,6,7,8-tetrahydropyrrolo[1,2-a]pyrazine-6-carboxamide], the inhibition constant (Ki) is less than 500 nM on MASP-2 (CCP1-CCP2-SP) and 500 to 2500 nM on human α-thrombin.
In the case of `Cc1cc2[nH]c(CNC(=O)[C@@H]3CCc4cnc(NCc5cc(F)ccc5C)c(=O)n43)cc2cn1` [Compound 64, (S)-3-((5-fluoro-2-methylbenzyl)amino)-N-((6-methyl-1H-pyrrolo[3,2-c]pyridin-2-yl)methyl)-4-oxo-4,6,7,8-tetrahydropyrrolo[1,2-a]pyrazine-6-carboxamide], the figures for the inhibitory constant (Ki) on MASP-2 (CCP1-CCP2-SP) and on human α-thrombin were less than 500 nM and 10000 to 25000 nM, respectively.
As to `Cc1ccc(F)cc1CNc1ncc2n(c1=O)[C@H](C(=O)NCc1ccc(N)nc1C)CC2` [Compound 65, (S)-N-((6-amino-2-methylpyridin-3-yl)methyl)-3-((5-fluoro-2-methylbenzyl)amino)-4-oxo-4,6,7,8-tetrahydropyrrolo[1,2-a]pyrazine-6-carboxamide], the Ki on MASP-2 (CCP1-CCP2-SP) and on human α-thrombin was less than 500 nM each time.
On to `Cc1nc(N)ccc1CNC(=O)[C@@H]1CCc2cnc(NCc3cccc(C(C)(C)O)c3)c(=O)n21` [Compound 66, (S)-N-((6-amino-2-methylpyridin-3-yl)methyl)-3-((3-(2-hydroxypropan-2-yl)benzyl)amino)-4-oxo-4,6,7,8-tetrahydropyrrolo[1,2-a]pyrazine-6-carboxamide], for which the inhibition constant Ki on MASP-2 (CCP1-CCP2-SP) and on human α-thrombin was less than 500 nM throughout.
`CC(C)(O)c1cccc(CNc2ncc3n(c2=O)[C@H](C(=O)NCc2cc4cnccc4[nH]2)CC3)c1` [Compound 67, (S)-N-((1H-pyrrolo[3,2-c]pyridin-2-yl)methyl)-3-((3-(2-hydroxypropan-2-yl)benzyl)amino)-4-oxo-4,6,7,8-tetrahydropyrrolo[1,2-a]pyrazine-6-carboxamide]: the Ki was less than 500 nM at MASP-2 (CCP1-CCP2-SP) and 500 to 2500 nM at human α-thrombin.
Take `Cc1cc2[nH]c(CNC(=O)[C@@H]3CCc4cnc(NCc5cccc(C(C)(C)O)c5)c(=O)n43)cc2cn1` [Compound 68, (S)-3-((3-(2-hydroxypropan-2-yl)benzyl)amino)-N-((6-methyl-1H-pyrrolo[3,2-c]pyridin-2-yl)methyl)-4-oxo-4,6,7,8-tetrahydropyrrolo[1,2-a]pyrazine-6-carboxamide]: the Ki is less than 500 nM on MASP-2 (CCP1-CCP2-SP) and greater than 25000 nM on human α-thrombin.
The corresponding values for `Cc1cc(F)cc(CNc2ncc3n(c2=O)[C@H](C(=O)NCc2cc4cnccc4[nH]2)CC3)c1` [Compound 70, (S)-N-((1H-pyrrolo[3,2-c]pyridin-2-yl)methyl)-3-((3-fluoro-5-methylbenzyl)amino)-4-oxo-4,6,7,8-tetrahydropyrrolo[1,2-a]pyrazine-6-carboxamide] are less than 500 nM and 500 to 2500 nM.
On to `Cc1cc(F)cc(CNc2ncc3n(c2=O)[C@H](C(=O)NCc2ccc(N)nc2)CC3)c1` [Compound 72, (S)-N-((6-aminopyridin-3-yl)methyl)-3-((3-fluoro-5-methylbenzyl)amino)-4-oxo-4,6,7,8-tetrahydropyrrolo[1,2-a]pyrazine-6-carboxamide], for which the Ki at MASP-2 (CCP1-CCP2-SP) and on human α-thrombin was less than 500 nM in each case.
In the case of `Cc1cccc([C@@H](C)Nc2ncc3n(c2=O)[C@H](C(=O)NCc2cc4cnccc4[nH]2)CC3)c1` [Compound 73, (S)-N-((1H-pyrrolo[3,2-c]pyridin-2-yl)methyl)-4-oxo-3-(((R)-1-(m-tolyl)ethyl)amino)-4,6,7,8-tetrahydropyrrolo[1,2-a]pyrazine-6-carboxamide], the Ki at MASP-2 (CCP1-CCP2-SP) was less than 500 nM; at human α-thrombin, 10000 to 25000 nM.
The corresponding values for `Cc1cccc([C@H](C)Nc2ncc3n(c2=O)[C@H](C(=O)NCc2cc4cnccc4[nH]2)CC3)c1` [Compound 74, (S)-N-((1H-pyrrolo[3,2-c]pyridin-2-yl)methyl)-4-oxo-3-(((S)-1-(m-tolyl)ethyl)amino)-4,6,7,8-tetrahydropyrrolo[1,2-a]pyrazine-6-carboxamide] are less than 500 nM and 500 to 2500 nM.
For the molecule `Cc1cc(C)cc([C@@H](CO)Nc2ncc3n(c2=O)[C@H](C(=O)NCc2ccc(N)nc2C)CC3)c1` [Compound 76, (S)-N-((6-amino-2-methylpyridin-3-yl)methyl)-3-(((S)-1-(3,5-dimethylphenyl)-2-hydroxyethyl)amino)-4-oxo-4,6,7,8-tetrahydropyrrolo[1,2-a]pyrazine-6-carboxamide], the Ki on MASP-2 (CCP1-CCP2-SP) and at human α-thrombin was less than 500 nM throughout.
Regarding `Cc1ccc(F)c(CNc2ncc3n(c2=O)[C@H](C(=O)NCc2ccc(N)nc2C)CC3)c1` [Compound 77, (S)-N-((6-amino-2-methylpyridin-3-yl)methyl)-3-((2-fluoro-5-methylbenzyl)amino)-4-oxo-4,6,7,8-tetrahydropyrrolo[1,2-a]pyrazine-6-carboxamide], the inhibitory constant (Ki) at MASP-2 (CCP1-CCP2-SP) and at human α-thrombin was less than 500 nM in each case.
Consider `Cc1ccc(F)c(CNc2ncc3n(c2=O)[C@H](C(=O)NCc2ccc(N)nc2)CC3)c1` [Compound 79, (S)-N-((6-aminopyridin-3-yl)methyl)-3-((2-fluoro-5-methylbenzyl)amino)-4-oxo-4,6,7,8-tetrahydropyrrolo[1,2-a]pyrazine-6-carboxamide], for which the Ki on MASP-2 (CCP1-CCP2-SP) and at human α-thrombin was less than 500 nM each time.
On to `Cc1ccc(F)c(CNc2ncc3n(c2=O)[C@H](C(=O)NCc2cc4cnc(C)cc4[nH]2)CC3)c1` [Compound 80, (S)-3-((2-fluoro-5-methylbenzyl)amino)-N-((6-methyl-1H-pyrrolo[3,2-c]pyridin-2-yl)methyl)-4-oxo-4,6,7,8-tetrahydropyrrolo[1,2-a]pyrazine-6-carboxamide], for which the Ki at MASP-2 (CCP1-CCP2-SP) is less than 500 nM; on human α-thrombin it was 10000 to 25000 nM.
The matching figures for `Cc1ccccc1[C@@H](C)Nc1ncc2n(c1=O)[C@H](C(=O)NCc1cc3cnccc3[nH]1)CC2` [Compound 81, (S)-N-((1H-pyrrolo[3,2-c]pyridin-2-yl)methyl)-4-oxo-3-(((R)-1-(0-tolyl)ethyl)amino)-4,6,7,8-tetrahydropyrrolo[1,2-a]pyrazine-6-carboxamide]: less than 500 nM and less than 500 nM.
For the molecule `Cc1ccccc1[C@@H](C)Nc1ncc2n(c1=O)[C@H](C(=O)NCc1ccc(N)nc1C)CC2` [Compound 82, (S)-N-((6-amino-2-methylpyridin-3-yl)methyl)-4-oxo-3-(((R)-1-(o-tolyl)ethyl)amino)-4,6,7,8-tetrahydropyrrolo[1,2-a]pyrazine-6-carboxamide], the Ki on MASP-2 (CCP1-CCP2-SP) and at human α-thrombin was less than 500 nM in each case.
Turning to `Cc1ccccc1[C@H](C)Nc1ncc2n(c1=O)[C@H](C(=O)NCc1cc3cnccc3[nH]1)CC2` [Compound 83, (S)-N-((1H-pyrrolo[3,2-c]pyridin-2-yl)methyl)-4-oxo-3-(((S)-1-(o-tolyl)ethyl)amino)-4,6,7,8-tetrahydropyrrolo[1,2-a]pyrazine-6-carboxamide], the Ki on MASP-2 (CCP1-CCP2-SP) was less than 500 nM; at human α-thrombin, 2500 to 10000 nM.
The matching figures for `O=C(NCc1cc2cnccc2[nH]1)[C@@H]1CCc2cnc(N3CC(c4ccccc4)C3)c(=O)n21` [Compound 84, (S)-N-((1H-pyrrolo[3,2-c]pyridin-2-yl)methyl)-4-oxo-3-(3-phenylazetidin-1-yl)-4,6,7,8-tetrahydropyrrolo[1,2-a]pyrazine-6-carboxamide]: 500 to 2500 nM and 10000 to 25000 nM.
With `Cc1cc(C)cc(CNc2ncc3n(c2=O)[C@H](C(=O)NCc2ccncc2)CC3)c1` [Compound 86, (S)-3-((3,5-dimethylbenzyl)amino)-4-oxo-N-(pyridin-4-ylmethyl)-4,6,7,8-tetrahydropyrrolo[1,2-a]pyrazine-6-carboxamide], the inhibition constant Ki is 500 to 2500 nM at MASP-2 (CCP1-CCP2-SP) and greater than 25000 nM at human α-thrombin.
On to `Cc1cc(C)cc(CNc2ncc3n(c2=O)[C@H](C(=O)NCc2ccc(N)nc2)CC3)c1` [Compound 87, (S)-N-((6-aminopyridin-3-yl)methyl)-3-((3,5-dimethylbenzyl)amino)-4-oxo-4,6,7,8-tetrahydropyrrolo[1,2-a]pyrazine-6-carboxamide], for which the inhibition constant (Ki) on MASP-2 (CCP1-CCP2-SP) and at human α-thrombin was less than 500 nM each time.
In the case of `Cc1cc(C)cc(CNc2nc(Cl)c3n(c2=O)[C@H](C(=O)NCc2cccnc2C)CC3)c1` [Compound 89, trifluoroacetate], the inhibition constant Ki was 2500 to 10000 nM on MASP-2 (CCP1-CCP2-SP) and greater than 25000 nM on human α-thrombin.
As to `Cc1cccc([C@@H](C)Nc2ncc3n(c2=O)[C@H](C(=O)NCc2cc4c(s2)CNC4)CC3)c1` [Compound 90, (S)—N-((5,6-dihydro-4H-thieno[2,3-c]pyrrol-2-yl)methyl)-4-oxo-3-(((R)-1-(m-tolyl)ethyl)amino)-4,6,7,8-tetrahydropyrrolo[1,2-a]pyrazine-6-carboxamide], the Ki was less than 500 nM on MASP-2 (CCP1-CCP2-SP) and 2500 to 10000 nM on human α-thrombin.
